Key:
[1] = test system: ovulation; assay: Ovulation inhibition test on rats, subcutaneous application, determined by tubal inspection; assay type: in vivo
Protocol: OVULATION INHIBITION IN RATS AFTER
SUBCUTANEOUS APPLICATION
The ovulation inhibition was determined by tubal inspection.

[2] = Androgenic side effects; details: in words, relative to B

| SMILES | Ovulation inhibition in rats after subcutaneous application (% inhibition) ([1]; dose 0.03 mg) [%] | Ovulation inhibition in rats after subcutaneous application (% inhibition) ([1]; dose 0.1 mg) [%] | Ovulation inhibition strength relative to ethynyl compound B ([1]; seen from the table) | Androgenic side effects compared with B [2] |
| --- | --- | --- | --- | --- |
| C#C[C@]1(O)CC[C@H]2[C@@H]3CCC4=CC(=O)CC[C@@H]4[C@H]3C(=C)C[C@@]21CC [B, 17α-ethynyl-17β-hydroxy-18-methyl-11-methylene-4-estren-3-one, reference compound] | 0 | 100 | – | – |
| C=C1C[C@@]2(CC)[C@@H](CC[C@@]2(O)C#CCl)[C@@H]2CCC3=CC(=O)CC[C@@H]3[C@@H]12 [A, 17α-chloroethynyl-17β-hydroxy-18-methyl-11-methylene-4-estren-3-one] | 83 | 100 | at least three times stronger than ethynyl compound B | less androgenic side effects than B |
